Measurements: article PMC6394301, “Evaluation of the anticancer potential of a sulphonamide carbonic anhydrase IX inhibitor on cervical cancer cells” (Journal of Enzyme Inhibition and Medicinal Chemistry, 2019)

Key:
HeLa cells [1] = test: WST-1 cell viability assay, HeLa; type: cell-based, human; details: for IC50: WST-1
Protocol: (§1) Since it is an unstable amino acid, the medium was supplemented with L-glutamine immediately prior.
(§2) WST-1 Cell Proliferation test, a product of the Roche Company is a colourimetric assay based on the cleavage of a tetrazolium salt by mitochondrial dehydrogenases to generate formazan in living cells. This assay is simple because only 10 μL of WST-1 reactant is added to 100 μL media on a 96-well plate. The cells were counted with a haemocytometer immediately before the subsequent procedures. The HeLa and PNT1A cells were used for seeding, with 5 × 10^3 cells per well, and then incubated overnight in a humidified atmosphere (37 °C with 5% CO2).
(§3) The next day, WST-1 is added to cells treated with S-1 as a cytotoxic reagent and the incubation is continued for an additional 1−2 h in a humidified atmosphere. One of the advantages of the WST-1 test is that colour change (yellow) can be seen with the naked eye.
(§4) After incubation, the plate was shaken well for 1 min. The absorbance is then measured at 450 nm versus a 650 nm reference by using a plate reader (M5, Spectra MAX) and SoftMax Pro software from Molecular Devices to compare experimental samples to controls.
(§5) IC50 is a measure used to estimate the potency of a material that inhibits a specific biological or biochemical function.
We determined the cell viability of CC cell line HeLa grown in 96-well plates for 24, 48, 72 h and treated with increasing concentrations (0, 2.5, 5, 10, 25, 50, 100, 200 μM) of S-1. Cell viability was evaluated with colourimetric WST-1 assay as described previously tested on the splitting of the tetrazolium salt by mitochondria dehydrogenases in viable cell. […] The number of viable cells was then quantified using trypan blue exclusion.

PNT1-A cells = test: WST-1 cell viability assay, PNT1-A; type: cell-based, human; details: PNT1-A 24 h
Protocol: as §1, §2, §3, §4, §5

HeLa cells [2] = test: Intracellular total oxidant status (TOS); type: cell-based, human
Protocol: The amount of cellular TOS was measured using an automated colourimetric reading process advanced by Erel[26]. In this method, the oxidation reaction is increased by the presence of excess glycerol in the reaction medium. Ferric ion forms a coloured complex with chromogen orange in an acidic environment. The spectrophotometrically measurable colour intensity is concerned to the whole level of oxidant molecules existent in the specimen. The assay is calibrated with H2O2, and the results are expressed in terms of micromolar H2O2 per mg protein (μmol H2O2 Equiv./mg protein).

HeLa cells [3] = test: Oxidative stress index (OSI); type: cell-based, human
Protocol: Percentage of TOS to TAS amount is taken into account in order to determine the oxidative stress index (OSI)[27]. Oxidative stress index was determined according to the equation outlined below:
OSI = (TOS (μ mol H2O2 equiv/g))/(TAS (μ mol Trolox equiv/g)) × 10

[4] = Stability of the imine bond in the assay medium; type: physicochemical
CA-IX = details: read-out: Ki value of CA-IX; cited from earlier work
HeLa cells [5] = test: Intracellular total antioxidant status (TAS); type: cell-based, human; details: positive control group
Protocol: The cellular TAS amount was determined using a new colourimetric assay method, which was improved by Erel[25]. This process is withstanding on the bleaching of the ostensible colour of the 2,2′-azino-bis [3-ethylbenzothiazoline-6-sulfonic acid] (ABTS) radical cation via the action of antioxidants. Upon the addition of a sample, the oxidative reactions initiated by the hydroxyl radicals present in the reaction mixture are inhibited by the antioxidant components of the lysate, preventing colour change and thus providing an effective measure of the TAS value of the lysate. The precision of this test has high accuracy (less than 3% error rate). Analysis results were expressed as mmol Trolox equiv/mg protein.

SMILES	IC50 (HeLa cells [1]; Homo sapiens, HeLa 24 h) [µM]	IC50 (HeLa cells [1]; Homo sapiens, HeLa 48 h) [µM]	IC50 (HeLa cells [1]; Homo sapiens, HeLa 72 h) [µM]	viability at 200 µM (HeLa cells [1]; Homo sapiens, HeLa, 200 μM, 48 h incubated, read-out: greatest viability loss) [%]	IC50 (PNT1-A cells; Homo sapiens, PNT1A) [µM]	TOS level compared with Cisplatin (HeLa cells [2]; doses 50, 100 µM)	OSI value compared with Cisplatin (HeLa cells [3]; 100 μM concentration)	stability in the assay medium [4]	Ki (CA-IX) [µM]	IC50 (HeLa cells [1]; HeLa 24 h) [µM]	IC50 (HeLa cells [1]; HeLa 48 h) [µM]	IC50 (HeLa cells [1]; HeLa 72 h) [µM]	IC50 (PNT1-A cells) [µM]	TAS value (HeLa cells [5])	TOS level (HeLa cells [2]; positive control group)	OSI value (HeLa cells [3]; positive control, from TOS and TAS)
NS(=O)(=O)c1ccc(N=Cc2cc(Cl)cc(Cl)c2O)cc1 [S-1, 4-[(3,5-Dichloro-2-hydroxybenzylidene)amino]benzenesulfonamide]	25.2	42.9	84.1	5.5	198	nearly same effect as Cisplatin	too close to the level of Cisplatin	stable	0.0356							
N.N.[Cl][Pt][Cl] [Cisplatin, cisplatin, reference compound]										28.9	7.6	6.1	13.4	0.67 mmol Trolox equiv/mg protein	11.49 μmol H2O2 Equiv./mg protein	1.72
